Where a name gives a salt, the structure may show the parent alone. Read-outs that look alike come from different tables or passages of the source.
How the values were obtained:
[1] = test system: rats trained to jump up on a vertical isolated pole; experiment: Pole Climbing Test (rat): inhibition of conditioned (BCR) and unconditioned (BUR) reaction; type: in vivo; settings: ip; for ED50: inhibition of conditioned reaction in 50% of the animals, observation time 6 hours; for ED10: inhibition of unconditioned reaction, ED10, i.p.
Description: "Pole Climbing" Test (rat)
For this experimental procedure there was used per dosage a group of 10 rats trained to jump up on a vertical isolated pole in the experimental cage, to escape an electroshock (unconditioned stimulus) produced via the lattice floor immediately after an acoustic signal (conditioned stimulus). The inhibition of the conditioned reaction in the case of 50% of the animals during an observation time of 6 hours is determined by the parameter ED 50 BCR, the inhibition of the unconditioned reaction is determined by the parameter ED 10 BUR.

[2] = target: T1, receptor, calf striatum ([^3 H]-spiroperidol) (Bos taurus, UniProt P20288); experiment: Spiroperidol-Binding Test (in vitro)
T1 construct: calf striatum was used as the receptor; from tissue; host or cells: calf striatum
T1 sequence (P20288 whole entry): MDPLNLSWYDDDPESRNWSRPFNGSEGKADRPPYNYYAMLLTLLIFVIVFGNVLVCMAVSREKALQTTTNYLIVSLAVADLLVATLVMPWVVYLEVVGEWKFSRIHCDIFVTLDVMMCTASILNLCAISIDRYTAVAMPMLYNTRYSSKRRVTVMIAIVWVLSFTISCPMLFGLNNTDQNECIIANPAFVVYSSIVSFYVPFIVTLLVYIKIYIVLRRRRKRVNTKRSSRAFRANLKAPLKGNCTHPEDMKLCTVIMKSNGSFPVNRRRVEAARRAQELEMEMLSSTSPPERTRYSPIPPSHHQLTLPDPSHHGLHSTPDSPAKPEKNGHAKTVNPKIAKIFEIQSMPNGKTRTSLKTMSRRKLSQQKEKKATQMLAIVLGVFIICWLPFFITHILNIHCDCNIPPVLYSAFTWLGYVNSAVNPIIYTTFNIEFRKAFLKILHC

[3] = test system: apomorphine-induced vomiting (dog); experiment: Antiemetic Activity (dog): apomorphine-induced vomiting; type: in vivo, dog (Beagle hounds); settings: Canis lupus familiaris, po, 1 hour before apomorphine hydrochloride 0.1 or 0.3 mg/kg s.c., 50% of animals protected, read-out: Anti-apomorphine emesis ED50 p.o.
[4] = 50% detachment of specific binding of [^3 H]-spiroperidol, calf striatum, in vitro, read-out: Spiroperidol-Binding IC50

O=c1[nH]c2cc(I)ccc2n1[C@@H]1CCN2C[C@@H](c3ccccc3F)CC[C@@H]2C1 (relative stereo) [rac-1-[(9aβH)-7β-(o-fluorophenyl)-octahydro-2H-quinolizin-2α-yl]-5-iodo-2-benzimidazolinone] was tested, and the ED50 [1] was 0.1 mg/kg, the ED10 [1] was 0.055 mg/kg and the IC50 [2] was 0.0086 µM.
In the case of O=c1[nH]c2cc(Br)ccc2n1[C@@H]1CCN2C[C@@H](c3ccccc3F)CC[C@@H]2C1 (relative stereo) [rac-1-[(9aβH)--7β-(o-Fluorophenyl)-octahydro-2H--quinolizin-2α-yl]-5-bromo-2-benzimidazolinone.HCl], the ED50 [1] is reported as 0.08 mg/kg, the ED10 [1] is reported as 0.1 mg/kg and the IC50 [2] is reported as 0.0038 µM.
N#Cc1ccc2c(c1)[nH]c(=O)n2[C@@H]1CCN2C[C@@H](c3ccccc3F)CC[C@@H]2C1 (relative stereo) [rac-1-[(9aβH)--7β-(o-Fluorophenyl)-octahydro-2H--quinolizin-2α-yl]-5-cyano-2-benzimidazolinone.HCl] gave an ED50 [1] of 0.65 mg/kg, an ED10 [1] of 1 mg/kg and an IC50 [2] of 0.05 µM.
COc1cc(N)c(Cl)cc1C(=O)N[C@@H]1CCN2C[C@@H](c3ccccc3Cl)CC[C@@H]2C1 (relative stereo) [rac-4-amino-5-chloro-N-[(9aβH)-7β-(o-chlorophenyl)-octahydro-2H-quinolizin-2α-yl]-o-anisamide] showed an ED50 [1] of 12.5 mg/kg, an ED10 [1] of 12.5 mg/kg and an IC50 [2, 4] of 0.03 µM. For the same molecule, the ED50 [3] was 2.3 mg/kg.
O=C1CCCN1C(=O)N[C@@H]1CCN2C[C@@H](c3ccccc3Cl)CC[C@@H]2C1 (relative stereo) [rac-N-((9aβH)-7β-(o-chlorophenyl)octahydro-2H-quinolizin-2α-yl)-2-oxo-1-pyrrolidinecarboxamide] was tested, and the ED50 [1] was 23 mg/kg and the ED10 [1] was > 30 mg/kg.
With O=C(N[C@@H]1CCN2C[C@@H](c3ccccc3Cl)CC[C@@H]2C1)c1cccs1 (relative stereo) [rac-N-((9aβH)-7β-(o-chlorophenyl)octahydro-2H-quinolizin-2α-yl)-2-thiophenecarboxamide] the ED50 [1] was 18 mg/kg, the ED10 [1] was 25 mg/kg and the IC50 [2, 4] was 0.123 µM.
Molecule CCS(=O)(=O)c1ccc(OC)c(C(=O)N[C@@H]2CCN3C[C@@H](c4ccccc4Cl)CC[C@@H]3C2)c1 (relative stereo) [rac-N-((9aβH)-7β-(o-chlorophenyl)octahydro-2H-quinolizin-2α-yl)-5-(ethylsulfonyl)-o-anisamide] has an ED50 [1] of 10 mg/kg, an ED10 [1] of 10 mg/kg and an IC50 [2, 4] of 0.135 µM. The ED50 [3] was 0.38 mg/kg.
COc1ccc(S(N)(=O)=O)cc1C(=O)N[C@@H]1CCN2C[C@@H](c3ccccc3Cl)CC[C@@H]2C1 (relative stereo) [rac-N-((9aβH)-7β-(o-chlorophenyl)octahydro-2H-quinolizin-2α-yl)-5-sulfamoyl-o-anisamide] showed an ED50 [3] of 0.8 mg/kg.
O=C(N[C@@H]1CCN2C[C@@H](c3ccccc3Cl)CC[C@@H]2C1)c1ccc(F)cc1 (relative stereo) [rac-N-((9aβH)-7β-(o-chlorophenyl)octahydro-2H-quinolizin-2α-yl)-p-fluorobenzamide] showed an ED50 [1] of 12 mg/kg, an ED10 [1] of 5.5 mg/kg and an IC50 [2, 4] of 0.067 µM.
For O=C(N[C@@H]1CCN2C[C@@H](c3ccccc3Cl)CC[C@@H]2C1)C1CC1 (relative stereo) [rac-N-[(9aβH)-7β-(o-chlorophenyl)-octahydro-2H-quinolizin-2α-yl]-cyclopropanecarboxamide], the ED50 [1] was 6 mg/kg, the ED10 [1] was 5.5 mg/kg and the IC50 [2, 4] was 0.55 µM.
For O=C(c1ccc(F)cc1)[C@@H]1CCN2C[C@@H](c3ccccc3Cl)CC[C@@H]2C1 (relative stereo) [rac-[(9aβH)-7β-(o-chlorophenyl)-octahydro-2H-quinolizin-2α-yl]p-fluorophenylketone], the ED50 [1] was 3 mg/kg, the ED10 [1] was 3 mg/kg and the IC50 [2, 4] was 0.011 µM.
